{"source": "patent US20200397795A1", "about": "“PROPHYLACTIC TREATMENT OF VENOUS THROMBOEMBOLISM” (JANSSEN PHARMACEUTICALS, INC., priority 2019, published 2020)", "test": "MAGELLAN (Study 1): pharmacokinetics", "assay_type": "in vivo, human", "conditions": "for AUC: plasma", "method": "A subset of approximately 125 subjects was to be stratified into 5 groups (of 25 subjects) based on the major diagnoses. The following pharmacokinetic (PK) parameters were calculated on Day 1 and Day 10: area under the plasma concentration curve (AUC), area under the curve normalized to body weight (AUCnorm), area under the curve for the expected dosing interval obtained after single dose administration (AUCτ), AUCτ, norm, maximum serum concentration (Cmax), maximum and normalized serum concentration (Cmax, norm), time to reach maximum concentration in plasma (tmax), half-life (t1/2), and total body clearance of drug from plasma calculated after oral administration (CL/F).", "note": "Where two headings read alike, the source gives them in different places.", "data": [{"smiles": "O=C(NC[C@H]1CN(c2ccc(N3CCOCC3=O)cc2)C(=O)O1)c1ccc(Cl)s1", "note": "[Rivaroxaban, 5-chloro-N-({(5S)-2-oxo-3-[4-(3-oxo-4-morpholinyl)phenyl]-1,3,oxazolidin-5-yl}methyl)-2-thiophenecarboxamide]", "values": [{"measurement": "Cmax", "setting": "Day 10, subjects with acute infectious disease", "result": 178.9, "unit": "ng/mL"}, {"measurement": "AUC", "setting": "human, oral, 10 mg, Day 1, overall, 10 mg", "result": 1640, "unit": "ng·h/mL"}, {"measurement": "AUC", "setting": "human, oral, 10 mg, Day 10, overall, 10 mg", "result": 1360, "unit": "ng·h/mL"}, {"measurement": "AUC", "setting": "human, oral, 10 mg, Day 10, subjects with CHF NYHA IV", "result": 1440, "unit": "ng·h/mL"}, {"measurement": "AUC", "setting": "human, oral, 10 mg, Day 10, subjects with acute infectious disease", "result": 1190, "unit": "ng·h/mL"}, {"measurement": "Cmax", "setting": "human, serum, oral, 10 mg, Day 1, overall, 10 mg, read-out: Cmax", "result": 176, "unit": "ng/mL"}, {"measurement": "Cmax", "setting": "human, serum, oral, 10 mg, Day 10, overall, 10 mg, read-out: Cmax", "result": 189, "unit": "ng/mL"}, {"measurement": "Cmax", "setting": "human, serum, oral, 10 mg, Day 10, subjects with CHF NYHA IV, read-out: Cmax", "result": 192, "unit": "ng/mL"}]}]}
